In publication PMC3091528 (Glycobiology, 2011):

Tests used:
mouse LSECtin CRD = target: T1, mouse LSECtin CRD (Mus musculus, UniProt Q8BNX1); format: binding
T1 sequence (Q8BNX1 161-294): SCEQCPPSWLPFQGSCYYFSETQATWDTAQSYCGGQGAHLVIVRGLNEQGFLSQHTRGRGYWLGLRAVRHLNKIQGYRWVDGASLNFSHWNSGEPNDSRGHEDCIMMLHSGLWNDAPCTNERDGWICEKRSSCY

human LSECtin CRD = target: T2, human LSECtin CRD (Homo sapiens, UniProt Q6UXB4); format: binding
T2 sequence (Q6UXB4 165-293 limits assumed): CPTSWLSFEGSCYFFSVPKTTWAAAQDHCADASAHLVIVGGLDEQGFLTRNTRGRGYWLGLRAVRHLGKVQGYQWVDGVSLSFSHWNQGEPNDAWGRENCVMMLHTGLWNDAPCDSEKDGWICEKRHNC

Q: `CC(=O)N[C@H]1[C@H](O[C@@H]2C(O)O[C@H](CO)[C@@H](O)[C@@H]2O)O[C@H](CO)[C@@H](O)[C@@H]1O` (some centres unmarked) [GlcNAcβ1-2Man] was tested. Which Ki (mouse LSECtin CRD) did it give?
A: Its Ki is 10.2 ± 0.8 µM.

Q: What about the Ki (human LSECtin CRD) of the same compound?
A: The Ki was 1.1 ± 0.5 µM.
